This series is described as follows: Solubility of maleate of compound A in representative solvents. The class given is physicochemical. The text has this: Among these solvents, a solvent having a high solubility of compound A and a salt thereof is preferred.

Structures are written as SMILES.

The source of these data is patent US20190343796A1, “COMPOSITION FOR EXTERNAL USE” (FUJIFILM Toyama Chemical Co., Ltd., priority 2016, published 2019).

As to `OC1CN(CCCOCCc2ccc3sccc3c2)C1` [maleate of compound A, 1-(3-(2-(1-benzothiophen-5-yl)ethoxy)propyl)azetidin-3-ol], the “Solubility of maleate of compound A at 25° C.” value (shortened to “Solubility”) (Benzyl alcohol, 25° C.) is recorded as 35 g/100 g of solvent; the “Solubility” value (Butylene glycol, 25° C.) is on record as 5 g/100 g of solvent; the “Solubility” value (Dimethyl sulfoxide, 25° C.) was >50 g/100 g of solvent; the “Solubility” value (Dipropylene glycol, 25° C.) is 8 g/100 g of solvent; the “Solubility” value (Ethanol, 25° C.) is recorded as 3 g/100 g of solvent; the “Solubility” value (N-methyl-2-pyrrolidone, 25° C.) is on record as >50 g/100 g of solvent. The “Solubility” value by setting is: (Polyethylene glycol 200, 25° C.) 10 g/100 g of solvent; (Polyethylene glycol 400, 25° C.) 16 g/100 g of solvent; (Propylene glycol, 25° C.) 10 g/100 g of solvent.
